# Source: paper PMC8548585, “Triazolopyrimidine herbicides are potent inhibitors of Aspergillus fumigatus acetohydroxyacid synthase and potential antifungal drug leads” (Scientific Reports, 2021)
# Tests used:
# [1] = system: A. niger; test: Antifungal susceptibility assay (broth microdilution MIC); format: cell-based; details: Aspergillus niger, 35 °C, 48 h, no observable growth
# [2] = system: A. fumigatus; test: as above; format: cell-based; details: Aspergillus fumigatus; A. fumigatus strain ATCC MYAA 3626, 35 °C, 48 h, no observable growth
# [3] = system: A. flavus; test: as above; format: cell-based; details: Aspergillus flavus, 35 °C, 48 h, no observable growth
# [4] = molecular target: CaAHAS (C. albicans AHAS); design: method as in earlier work; details: shown for comparison; ref 13 (Garcia et al.); cited from earlier work
# [5] = system: A. nidulans; test: Antifungal susceptibility assay (broth microdilution MIC); format: cell-based; details: Aspergillus nidulans, 35 °C, 48 h, no observable growth
MIC [1],MIC [2],MIC [3],MIC [5],Structure (SMILES),Ki [4]
> 100 µg/mL,> 100 µg/mL,> 100 µg/mL,> 100 µg/mL,CCOc1nc(F)cc2nc(S(=O)(=O)Nc3c(Cl)cccc3C(=O)OC)nn12 [CSM],4.6 ± 1.2 nM
> 100 µg/mL,> 100 µg/mL,> 100 µg/mL,> 100 µg/mL,COc1cc(OC)n2nc(NS(=O)(=O)c3c(C(F)(F)F)ccnc3OC)nc2n1 [PYS],212 ± 18 nM
> 100 µg/mL,> 100 µg/mL,> 100 µg/mL,> 100 µg/mL,COC(=O)c1csc(C)c1S(=O)(=O)NC(=O)n1nc(OC)n(C)c1=O [TCM],28000 nM
